Paper PMC2763920 (Electrophoresis, 2009)

Tests used:
GST-Fyn-SH3-SH2 [1] = experiment: NECEEM, GST-Fyn-SH3-SH2:Fluor-Fyn peptide complex; format: binding; details: 2 μM GST-Fyn-SH3-SH2, 100 nM Fluor-Fyn peptide, pH 8.5
GST-Fyn-SH3-SH2 [2] = experiment: High-speed CE competition / binding, GST-Fyn-SH3-SH2 with Fluor-Fyn peptide
Fyn-SH3-SH2 = details: 100 V/cm for Ld of 30 cm; 100 and 200 V/cm for Ld of 40 cm; t1/2 not measured

## fluorescein-EEEEPQpYEEIPIYL [Fluor-Fyn peptide]
GST-Fyn-SH3-SH2 [1]
  complexes observed (NECEEM): two incompletely resolved peaks
GST-Fyn-SH3-SH2 [2]; 500 nM protein, 200 nM Fluor-Fyn peptide
  number of complexes detected (high-speed CE), GST-Fyn-SH2-SH3: two distinct complexes were detected
GST-Fyn-SH3-SH2 [2]; Fluor-Fyn peptide 50 nM to 700 nM, protein 500 nM
  complex 1-to-complex 2 ratio with increasing peptide concentration: decreases with increasing peptide concentration
GST-Fyn-SH3-SH2 [2]; GST-Fyn-SH3-SH2 0.1 μM to 0.5 μM, Fluor-Fyn peptide 200 nM
  protein concentration dependency of complex formation: low range: complex 2 increases
GST-Fyn-SH3-SH2 [2]; for t1/2 of 22 s and separation time of 3.8 s
  complex expected to dissociate over the course of separation: 2%
Fyn-SH3-SH2
  dissociation of the complex at low electric field (NECEEM): complete dissociation of the complex
